Laboratory results published in PubChem BioAssay AID1845199 (Molecular Pharmacology Branch, DTP, NCI, 2023).
pIC50: −log10 of the molar value.

Test system: 556581-035-R-J1 tumor spheroid viability, % test/control
Assay: Anticancer human tumor 556581-035-R-J1 patient-derived ovarian carcinoma cell line growth inhibition
Conditions: spheroids with HUVEC and MSC; for pIC50: curve of first compound; for viability, T/C: stronger effect = lower value
How it was run: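 Complex tumor spheroids combined malignant cells with endothelial cells and mesenchymal stem cells. DNA-damaging drugs and DNA repair inhibitors were tested alone and in combination, at half-log dilutions down from clinical Cmax (top 10 microM if Cmax unknown), 0.25% DMSO final.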

[1] = second compound 30 pM, first compound 0.0316 µM
[2] = second compound 30 pM, first compound 0.1 µM
[3] = second compound 30 pM, first compound 0.316 µM
[4] = second compound 30 pM, first compound 1 µM
[5] = second compound 30 pM, first compound 3.16 µM
[6] = second compound 30 pM, first compound 10 µM
[7] = second compound 94.9 pM, first compound 0.0316 µM
[8] = second compound 94.9 pM, first compound 0.1 µM
[9] = second compound 94.9 pM, first compound 0.316 µM
[10] = second compound 94.9 pM, first compound 1 µM
[11] = second compound 94.9 pM, first compound 3.16 µM
[12] = second compound 94.9 pM, first compound 10 µM
[13] = second compound 0.0003 µM, first compound 0.0316 µM
[14] = second compound 0.0003 µM, first compound 0.1 µM
[15] = second compound 0.0003 µM, first compound 0.316 µM
[16] = second compound 0.0003 µM, first compound 1 µM
[17] = second compound 0.0003 µM, first compound 3.16 µM
[18] = second compound 0.0003 µM, first compound 10 µM
[19] = second compound 0.000949 µM, first compound 0.0316 µM
[20] = second compound 0.000949 µM, first compound 0.1 µM
[21] = second compound 0.000949 µM, first compound 0.316 µM
[22] = second compound 0.000949 µM, first compound 1 µM
[23] = second compound 0.000949 µM, first compound 3.16 µM
[24] = second compound 0.000949 µM, first compound 10 µM
[25] = second compound 0.003 µM, first compound 0.0316 µM
[26] = second compound 0.003 µM, first compound 0.1 µM
[27] = second compound 0.003 µM, first compound 0.316 µM
[28] = second compound 0.003 µM, first compound 1 µM
[29] = second compound 0.003 µM, first compound 3.16 µM
[30] = second compound 0.003 µM, first compound 10 µM
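Further: spheroids exposed to compounds for 7 days before viability read.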

SMILES	pIC50 (second compound 30 pM)	pIC50 (second compound 94.9 pM)	pIC50 (second compound 0.0003 µM)	pIC50 (second compound 0.000949 µM)	pIC50 (second compound 0.003 µM)	viability, T/C [1]	viability, T/C [2]	viability, T/C [3]	viability, T/C [4]	viability, T/C [5]	viability, T/C [6]	viability, T/C [7]	viability, T/C [8]	viability, T/C [9]	viability, T/C [10]	viability, T/C [11]	viability, T/C [12]	viability, T/C [13]	viability, T/C [14]	viability, T/C [15]	further results
CC(C)n1c(=O)n(C)c2cnc3cc(F)c(-c4ccc(OCCCN5CCCCC5)nc4)cc3c21 + COc1cc2c(cc1O)CCNC21CSC2c3c(OC(C)=O)c(C)c4c(c3C(COC1=O)N1C(O)C3Cc5cc(C)c(OC)c(O)c5C(C21)N3C)OCO4	< 5.00	< 5.00	< 5.00	> 7.50	> 7.50	86.3%	97.8%	96.5%	91%	89.2%	73.7%	94.9%	98%	95.6%	95.6%	86%	66.6%	96.1%	96.8%	98.8%	viability, T/C [16]: 97.7%; viability, T/C [17]: 84.4%; viability, T/C [18]: 62.3%; viability, T/C [19]: 44.8%; viability, T/C [20]: 35%; viability, T/C [21]: 37.1%; viability, T/C [22]: 48.5%; viability, T/C [23]: 39.1%; viability, T/C [24]: 17.6%; viability, T/C [25]: 0.76%; viability, T/C [26]: 1.38%; viability, T/C [27]: 0.61%; viability, T/C [28]: 0.59%; viability, T/C [29]: 0.42%; viability, T/C [30]: 0.65%
CC1COCCN1c1cc(-c2ccnn2C)c2ccnc(-c3ccn[nH]3)c2n1 (stereo not given) + COc1cc2c(cc1O)CCNC21CSC2c3c(OC(C)=O)c(C)c4c(c3C(COC1=O)N1C(O)C3Cc5cc(C)c(OC)c(O)c5C(C21)N3C)OCO4	6.10	6.37	7.23	> 7.50	> 7.50	93.9%	74.6%	59.1%	48.5%	38.2%	34.4%	73.7%	62.5%	51.8%	44.2%	38%	34.4%	53.6%	45.7%	43.1%	viability, T/C [16]: 43.8%; viability, T/C [17]: 37.6%; viability, T/C [18]: 32.3%; viability, T/C [19]: 7.45%; viability, T/C [20]: 4.92%; viability, T/C [21]: 5.53%; viability, T/C [22]: 6.39%; viability, T/C [23]: 3.31%; viability, T/C [24]: 0.59%; viability, T/C [25]: 0.82%; viability, T/C [26]: 0.83%; viability, T/C [27]: 1.19%; viability, T/C [28]: 0.43%; viability, T/C [29]: 0.43%; viability, T/C [30]: 0.72%
COc1cc(C)[nH]c(=O)c1CN1CCc2c(Cl)cc(C(OC)C3COC3)c(Cl)c2C1=O (stereo not given) + COc1cc2c(cc1O)CCNC21CSC2c3c(OC(C)=O)c(C)c4c(c3C(COC1=O)N1C(O)C3Cc5cc(C)c(OC)c(O)c5C(C21)N3C)OCO4	< 5.00	< 5.00	< 5.00	> 7.50	> 7.50	106%	108%	105%	115%	116%	113%	103%	101%	108%	111%	108%	110%	92.4%	95%	100%	viability, T/C [16]: 101%; viability, T/C [17]: 98.2%; viability, T/C [18]: 93.7%; viability, T/C [19]: 44.6%; viability, T/C [20]: 46.5%; viability, T/C [21]: 41.4%; viability, T/C [22]: 36.7%; viability, T/C [23]: 32.1%; viability, T/C [24]: 17.6%; viability, T/C [25]: 0.61%; viability, T/C [26]: 0.67%; viability, T/C [27]: 2.15%; viability, T/C [28]: 0.7%; viability, T/C [29]: 0.66%; viability, T/C [30]: 1.02%
COc1ccc([C@@H](O)c2cc(-c3ncnc4cc(N5CCOCC5)ccc34)c(F)cc2Cl)nn1 + COc1cc2c(cc1O)CCNC21CSC2c3c(OC(C)=O)c(C)c4c(c3C(COC1=O)N1C(O)C3Cc5cc(C)c(OC)c(O)c5C(C21)N3C)OCO4	5.75	5.71	5.69	> 7.50	> 7.50	97.4%	102%	88.2%	60.5%	40.1%	32.8%	104%	102%	90.5%	61.6%	42.7%	32.3%	99.5%	104%	86.8%	viability, T/C [16]: 67.8%; viability, T/C [17]: 40%; viability, T/C [18]: 22.4%; viability, T/C [19]: 42.1%; viability, T/C [20]: 36.5%; viability, T/C [21]: 12.3%; viability, T/C [22]: 0.69%; viability, T/C [23]: 0.37%; viability, T/C [24]: 1.03%; viability, T/C [25]: 0.59%; viability, T/C [26]: 0.87%; viability, T/C [27]: 0.65%; viability, T/C [28]: 0.7%; viability, T/C [29]: 0.82%; viability, T/C [30]: 0.98%
Cc1cc(C)c(CNC(=O)c2cc(-c3ccc(CN4CCOCC4)cc3)cc3c2cnn3C2CCCC2)c(=O)[nH]1 + COc1cc2c(cc1O)CCNC21CSC2c3c(OC(C)=O)c(C)c4c(c3C(COC1=O)N1C(O)C3Cc5cc(C)c(OC)c(O)c5C(C21)N3C)OCO4	< 5.00	< 5.00	< 5.00	> 7.50	> 7.50	100%	108%	105%	117%	112%	97.5%	109%	108%	110%	109%	110%	88.3%	99.9%	100%	103%	viability, T/C [16]: 103%; viability, T/C [17]: 98.4%; viability, T/C [18]: 88.3%; viability, T/C [19]: 45.2%; viability, T/C [20]: 43.5%; viability, T/C [21]: 46%; viability, T/C [22]: 30.7%; viability, T/C [23]: 24.5%; viability, T/C [24]: 11.6%; viability, T/C [25]: 1.01%; viability, T/C [26]: 0.92%; viability, T/C [27]: 0.9%; viability, T/C [28]: 0.75%; viability, T/C [29]: 0.82%; viability, T/C [30]: 1.15%
[2H]c1nc(C)nc([2H])c1-c1cc(NC[C@@H](C)c2cccc3c(C(=O)NC)ccnc23)ncn1 + COc1cc2c(cc1O)CCNC21CSC2c3c(OC(C)=O)c(C)c4c(c3C(COC1=O)N1C(O)C3Cc5cc(C)c(OC)c(O)c5C(C21)N3C)OCO4	< 5.00	< 5.00	< 5.00	> 7.50	> 7.50	105%	119%	116%	120%	110%	116%	113%	118%	108%	113%	118%	125%	101%	110%	102%	viability, T/C [16]: 104%; viability, T/C [17]: 108%; viability, T/C [18]: 109%; viability, T/C [19]: 40.9%; viability, T/C [20]: 46.4%; viability, T/C [21]: 42.9%; viability, T/C [22]: 46.3%; viability, T/C [23]: 33.9%; viability, T/C [24]: 31.1%; viability, T/C [25]: 1.6%; viability, T/C [26]: 0.73%; viability, T/C [27]: 0.75%; viability, T/C [28]: 0.97%; viability, T/C [29]: 1.05%; viability, T/C [30]: 1.32%
